Laboratory results as given in ChEMBL document CHEMBL6134864, “Discovery of FLT3-ITD Inhibitor Clifutinib: A Novel Biphenylacetylene Urea Derivative in Clinical Trials for the Treatment of Relapsed/Refractory FLT3-ITD+ Acute Myeloid Leukemia” (J Med Chem, 2025).
Activity calls are given as the source filed them. The calls are words filed in the database; no cut-off is given here.

Tests used:
[1] = target: Cytochrome P450 2D6 (Homo sapiens, UniProt P10635); assay: Inhibition of CYP2D6 in human liver microsomes by UPLC-MS/MS analysis; format: ADME, Microsome
Sequence of Cytochrome P450 2D6 (P10635 whole entry): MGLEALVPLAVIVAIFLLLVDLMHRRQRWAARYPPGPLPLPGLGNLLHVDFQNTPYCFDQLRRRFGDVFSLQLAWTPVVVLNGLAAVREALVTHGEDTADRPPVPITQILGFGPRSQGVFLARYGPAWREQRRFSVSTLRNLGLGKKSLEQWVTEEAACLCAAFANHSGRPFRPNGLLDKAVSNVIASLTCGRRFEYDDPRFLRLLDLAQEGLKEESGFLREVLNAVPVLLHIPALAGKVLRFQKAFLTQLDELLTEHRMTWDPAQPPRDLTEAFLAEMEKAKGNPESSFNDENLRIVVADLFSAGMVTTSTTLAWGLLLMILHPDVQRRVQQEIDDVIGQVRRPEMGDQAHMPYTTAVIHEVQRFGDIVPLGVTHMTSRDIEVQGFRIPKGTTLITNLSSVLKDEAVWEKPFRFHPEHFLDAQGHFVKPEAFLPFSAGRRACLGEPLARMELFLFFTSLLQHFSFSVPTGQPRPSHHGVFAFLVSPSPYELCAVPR

[2] = system: BaF3; assay: cells; settings: Mus musculus, BaF3, 72 h
[3] = Half life in monkey plasma at 1 mg/kg, iv measured up to 24 hrs by LC-MS/MS analysis; format: ADME, organism-based, Macaca mulatta; settings: rhesus monkey
[4] = system: MOLM-13; assay: Antitumor activity against human MOLM-13 cells xenografted in NOD/SCID mouse model assessed as tumor growth inhibition at […], po by caliper analysis relative to control; format: functional; settings: dose 1.5 mg/kg/day, read-out: TGI
[5] = Cmax in NOD/SCID mouse plasma xenografted with human MV4-11 cells at 0.5 mg/kg, po measured up to 24 hrs by LC-MS/MS analysis; format: ADME, organism-based
[6] = Tmax in NOD/SCID mouse tumor xenografted with human MV4-11 cells at 4.5 mg/kg, po measured up to 24 hrs by LC-MS/MS analysis; format: ADME, organism-based, Neoplasm
[7] = AUC last in dog plasma at 5 mg/kg, po measured up to 24 hrs by LC-MS/MS analysis; format: ADME, organism-based, Canis lupus familiaris
[8] = Cmax in NOD/SCID mouse tumor xenografted with human MV4-11 cells at 4.5 mg/kg, po measured up to 24 hrs by LC-MS/MS analysis; format: ADME, organism-based, Neoplasm
[9] = Cmax in NOD/SCID mouse plasma xenografted with human MV4-11 cells at 4.5 mg/kg, po measured up to 24 hrs by LC-MS/MS analysis; format: ADME, organism-based
[10] = Tmax in monkey plasma at 5 mg/kg, po measured up to 24 hrs by LC-MS/MS analysis; format: ADME, organism-based, Macaca mulatta; settings: rhesus monkey
[11] = system: BaF3; assay: Antiproliferative activity against wild type mouse BaF3 cells assessed as inhibition of cell growth incubated for 72 hrs by celltiter-glo luminescent cell viability assay; format: functional, cell-based; settings: BaF3, 72 h
[12] = Volume of distribution at steady state in mouse plasma at 2 mg/kg, iv measured up to 24 hrs by LC-MS/MS analysis; format: ADME, organism-based; settings: read-out: Vdss
[13] = Tmax in mouse plasma at 10 mg/kg, po measured up to 24 hrs by LC-MS/MS analysis; format: ADME, organism-based
[14] = AUC (0 to t) in NOD/SCID mouse plasma xenografted with human MV4-11 cells at 0.5 mg/kg, po measured up to 24 hrs by LC-MS/MS analysis; format: ADME, organism-based
[15] = system: BaF3; assay: Antiproliferative activity against mouse BaF3 cells harbouring FLT3-ITD-D835Y mutant assessed as inhibition of cell growth incubated for 72 hrs by celltiter-glo luminescent cell viability assay; format: functional, cell-based; settings: BaF3, 72 h
[16] = system: MOLM-13; assay: cells; settings: Homo sapiens, MOLM-13, 72 h
Description: Antiproliferative activity against human MOLM-13 cells assessed as inhibition of cell growth incubated for 72 hrs by celltiter-glo luminescent cell viability assay

[17] = target: Cytochrome P450 2C8 (Homo sapiens, UniProt P10632); assay: Inhibition of CYP2C8 in human liver microsomes by UPLC-MS/MS analysis; format: ADME, Microsome
Sequence of Cytochrome P450 2C8 (P10632 whole entry): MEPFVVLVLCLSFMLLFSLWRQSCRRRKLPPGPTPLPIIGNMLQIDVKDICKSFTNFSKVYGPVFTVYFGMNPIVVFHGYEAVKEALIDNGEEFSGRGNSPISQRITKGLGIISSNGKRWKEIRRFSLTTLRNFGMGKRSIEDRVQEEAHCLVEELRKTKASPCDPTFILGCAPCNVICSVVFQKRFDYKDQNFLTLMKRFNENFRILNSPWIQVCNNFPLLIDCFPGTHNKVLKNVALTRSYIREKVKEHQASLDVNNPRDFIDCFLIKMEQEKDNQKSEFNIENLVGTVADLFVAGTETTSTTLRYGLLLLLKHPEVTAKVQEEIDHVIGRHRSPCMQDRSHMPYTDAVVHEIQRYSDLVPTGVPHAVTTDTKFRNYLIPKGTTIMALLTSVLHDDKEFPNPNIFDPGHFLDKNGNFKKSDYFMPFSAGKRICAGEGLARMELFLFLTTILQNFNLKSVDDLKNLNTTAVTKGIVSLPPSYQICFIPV

[18] = Cmax in dog plasma at 5 mg/kg, po measured up to 24 hrs by LC-MS/MS analysis; format: ADME, organism-based, Canis lupus familiaris
[19] = target: Cytochrome P450 2C19 (Homo sapiens, UniProt P33261); assay: Inhibition of CYP2C19 in human liver microsomes by UPLC-MS/MS analysis; format: ADME, Microsome
Sequence of Cytochrome P450 2C19 (P33261 whole entry): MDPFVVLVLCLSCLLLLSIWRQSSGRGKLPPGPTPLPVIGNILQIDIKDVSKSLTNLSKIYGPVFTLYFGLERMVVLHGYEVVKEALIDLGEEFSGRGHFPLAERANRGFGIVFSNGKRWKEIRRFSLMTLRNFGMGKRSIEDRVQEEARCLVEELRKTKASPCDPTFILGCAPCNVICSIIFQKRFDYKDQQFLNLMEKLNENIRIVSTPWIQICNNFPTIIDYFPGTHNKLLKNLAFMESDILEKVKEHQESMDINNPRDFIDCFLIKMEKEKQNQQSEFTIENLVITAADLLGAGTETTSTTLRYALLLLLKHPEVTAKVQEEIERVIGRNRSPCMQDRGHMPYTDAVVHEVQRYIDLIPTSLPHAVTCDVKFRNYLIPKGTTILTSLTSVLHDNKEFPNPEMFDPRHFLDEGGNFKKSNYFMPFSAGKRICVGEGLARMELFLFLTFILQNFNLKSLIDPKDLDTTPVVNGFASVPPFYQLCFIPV

[20] = system: MV4-11; assay: Induction of apoptosis in human MV4-11 cells harbouring FLT3-ITD mutant measured after 48 to 72 hrs by annexin V and PI staining based flow cytometry analysis; format: functional, cell-based; settings: dose 1-100 nM, time 48-72 hrs
[21] = AUC last in mouse plasma at 2 mg/kg, iv measured up to 24 hrs by LC-MS/MS analysis; format: ADME, organism-based
[22] = Tmax in mouse plasma at 2 mg/kg, iv measured up to 24 hrs by LC-MS/MS analysis; format: ADME, organism-based
[23] = system: Receptor-type tyrosine-protein kinase FLT3 (Homo sapiens), P36888 [UNDEFINED MUTATION]; assay: Inhibition of FLT3 in human MV4-11 cells harbouring FLT3-ITD mutant assessed as effect on ERK protein level at 1 to 1000 nM measured after 2 hrs by Western blot analysis; format: cell-based; settings: dose 1-1000 nM
Sequence of Receptor-type tyrosine-protein kinase FLT3 (Homo sapiens), P36888 [UNDEFINED MUTATION] (P36888 whole entry, looked up, stated change not applied): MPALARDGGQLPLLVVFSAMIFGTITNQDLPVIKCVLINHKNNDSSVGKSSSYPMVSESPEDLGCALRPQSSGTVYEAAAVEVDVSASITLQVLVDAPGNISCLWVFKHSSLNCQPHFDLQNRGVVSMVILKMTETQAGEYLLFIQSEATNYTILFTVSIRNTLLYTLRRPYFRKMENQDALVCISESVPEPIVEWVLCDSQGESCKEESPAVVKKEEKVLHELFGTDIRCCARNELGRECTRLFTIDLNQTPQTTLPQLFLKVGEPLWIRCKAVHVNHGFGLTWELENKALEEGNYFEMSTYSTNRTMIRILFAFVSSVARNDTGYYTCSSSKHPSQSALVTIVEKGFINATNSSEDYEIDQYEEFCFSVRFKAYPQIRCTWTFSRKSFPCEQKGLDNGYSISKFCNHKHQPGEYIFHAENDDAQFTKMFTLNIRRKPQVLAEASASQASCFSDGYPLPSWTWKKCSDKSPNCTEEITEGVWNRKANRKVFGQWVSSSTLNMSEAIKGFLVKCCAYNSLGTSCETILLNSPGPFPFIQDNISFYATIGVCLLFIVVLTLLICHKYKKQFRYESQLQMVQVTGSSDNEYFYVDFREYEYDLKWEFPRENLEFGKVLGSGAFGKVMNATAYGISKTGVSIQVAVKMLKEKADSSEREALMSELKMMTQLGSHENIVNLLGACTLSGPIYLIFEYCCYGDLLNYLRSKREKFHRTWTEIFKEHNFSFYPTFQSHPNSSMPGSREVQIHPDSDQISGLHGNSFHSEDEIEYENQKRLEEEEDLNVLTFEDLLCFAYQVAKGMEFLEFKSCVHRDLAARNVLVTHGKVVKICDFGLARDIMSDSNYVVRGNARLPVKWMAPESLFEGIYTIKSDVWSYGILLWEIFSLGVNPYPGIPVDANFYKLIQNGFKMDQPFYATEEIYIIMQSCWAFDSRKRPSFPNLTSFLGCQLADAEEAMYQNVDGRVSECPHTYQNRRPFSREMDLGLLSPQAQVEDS

[24] = Antitumor activity against human […] cells harbouring FLT3-ITD xenografted in NOD/SCID mouse model assessed as tumor regression rate at 20 mg/kg/day, po measured for 8 days by caliper analysis relative to control; format: functional, MV4-11; settings: time 8 day
[25] = Clearance in monkey plasma at 1 mg/kg, iv measured up to 24 hrs by LC-MS/MS analysis; format: ADME, organism-based, Macaca mulatta; settings: rhesus monkey
[26] = Half life in dog plasma at 5 mg/kg, po measured up to 24 hrs by LC-MS/MS analysis; format: ADME, organism-based, Canis lupus familiaris
[27] = system: RS4-11; assay: cells; settings: Homo sapiens, RS4-11, 72 h
Description: Antiproliferative activity against human RS4;11 cells assessed as inhibition of cell growth incubated for 72 hrs by celltiter-glo luminescent cell viability assay

[28] = Oral bioavailability in rat plasma at 5 mg/kg measured up to 24 hrs by LC-MS/MS analysis; format: ADME, organism-based
[29] = Tmax in NOD/SCID mouse plasma xenografted with human MV4-11 cells at […], po measured up to 24 hrs by LC-MS/MS analysis; format: ADME, organism-based; settings: dose 1.5 mg/kg
[30] = target: Receptor-type tyrosine-protein kinase FLT3 (Homo sapiens) (UniProt P36888); assay: Inhibition of FLT3 in human MV4-11 cells harbouring FLT3-ITD mutant assessed as effect on STAT5 protein level at 1 to 1000 nM measured after 2 hrs by Western blot analysis; format: cell-based; settings: dose 1-1000 nM
Sequence of Receptor-type tyrosine-protein kinase FLT3 (Homo sapiens) (P36888 whole entry): as the sequence (P36888 whole entry, looked up, stated change not applied) above

[31] = Cmax in NOD/SCID mouse tumor xenografted with human MV4-11 cells at […], po measured up to 24 hrs by LC-MS/MS analysis; format: ADME, organism-based, Neoplasm; settings: dose 1.5 mg/kg
[32] = Toxicity in NOD/SCID mouse assessed as effect on body weight loss at 0.5 to 4.5 mg/kg/day, po administered for 21 days and measured for 31 days post dose; format: organism-based; settings: in vivo, 504 h, dose 0.5-4.5 mg/kg/day, time 21 day
[33] = system: BaF3; assay: Antiproliferative activity against mouse BaF3 cells harbouring FLT3-ITD assessed as inhibition of cell growth incubated for 72 hrs by celltiter-glo luminescent cell viability assay; format: functional, cell-based; settings: BaF3, 72 h
[34] = system: K562; assay: cells; settings: Homo sapiens, K562, 72 h
Description: Antiproliferative activity against human K562 cells assessed as inhibition of cell growth incubated for 72 hrs by celltiter-glo luminescent cell viability assay

[35] = system: Receptor-type tyrosine-protein kinase FLT3 (Homo sapiens), P36888 [UNDEFINED MUTATION]; assay: Inhibition of FLT3 in human MV4-11 cells harbouring FLT3-ITD mutant assessed as effect on AKT protein level at 1 to 1000 nM measured after 2 hrs by Western blot analysis; format: cell-based; settings: dose 1-1000 nM
[36] = system: BaF3; assay: Antiproliferative activity against mouse BaF3 cells harbouring FLT3-D835V mutant assessed as inhibition of cell growth incubated for 72 hrs by celltiter-glo luminescent cell viability assay; format: functional, cell-based; settings: BaF3, 72 h
[37] = system: BaF3; assay: cells; settings: Mus musculus, BaF3, 72 h; remark: listed apart in the source
[38] = Antitumor activity against human […] cells harbouring FLT3-ITD xenografted in NOD/SCID mouse model assessed as tumor regression rate at 1.5 to 4.5 mg/kg/day, po administered for 21 days and measured for 31 days post dose by caliper analysis relative to control; format: functional, MV4-11; settings: dose lower […], dose upper 4.5 mg/kg/day, time 52 day

CC(C)(C)c1cc(NC(=O)Nc2ccc(C#Cc3ccc(OCCCN4CCOCC4)cc3)cc2)no1
IC50 [1]: > 33300 nM
IC50 [2]: 2.9 nM
half-life [3]: 13.1 h
inhibition in vivo at […] [4]: 52%
Cmax [5]: 20.5 ng/mL
Tmax [6]: 6 h
AUC(0-t) at 24 h [7]: 4870 ng·h/mL
Cmax [8]: 307 ng/mL
Cmax [9]: 199 ng/mL
Tmax [10]: 4 h
IC50 [11]: > 1000 nM
Vd [12]: 1.36 L/kg
Tmax [13]: 0.5 h
AUC(0-t) at 24 h [14]: 58.9 ng·h/mL
IC50 [15]: 47.6 nM
IC50 [16]: 1 nM
IC50 [17]: > 33300 nM
Cmax [18]: 520 ng/mL
IC50 [19]: > 33300 nM
Activity [20]: Dose-dependent-effect
AUC(0-t) at 24 h [21]: 1740 ng·h/mL
Tmax [22]: 4.98 min
inhibition [23]: inactive
Activity [24]: 85.4%
clearance [25]: 1.35 mL/min/kg
half-life [26]: 7.41 h
IC50 [27]: > 10000 nM
bioavailability [28]: 67.9%
Tmax at 24 h [29]: 1 h
inhibition [30]: inactive
Cmax at 24 h [31]: 91.9 ng/mL
Activity [32]: Non-toxic
IC50 [33]: 0.9 nM
IC50 [34]: > 10000 nM
inhibition [35]: inactive
IC50 [36]: 37.4 nM
IC50 [37]: 4.1 nM
Activity [38]: 100%
